We go through four compounds from patent US20210395794A1, “Antimicrobial Susceptibility Assay and Kit” (The University of Manchester, priority 2018, published 2021).

One experiment has as its system E. coli in UTI samples. The experiment in a line: Flow cytometric antibiotic sensitivity of positive UTI urine samples (Firsway clinic) in Terrific Broth with diS-C3(5). It is filed as cell-based. Also on record: key: R—resistant; S—sensitive. The conditions noted are these: antibiotic at nominal 3x MIC. The source says:
Initial studies used a Sony SH-800 instrument, but all studies reported here used an Intellicyt® iQue screener PLUS. This instrument is based in significant measure on developments by Sklar and colleagues (e.g. (Edwards et al. 2009; Sklar et al. 2007; Tegos et al. 2014)), and uses segmented flow (Skeggs 1957) to sample from 96- or 384-well U- or V-bottom plates prior to their analysis. The iQue Plus contains three excitation sources (405 nm, 488 nm, 640 nm) and 7 fixed filter detectors (with a midpoint/range in nm of 445/45, 530/30, 572/28, 585/40, 615/24, 675/30, 780/60, giving 13 fluorescence channels) whose outputs are stored as both ‘height’ and area, using the FCS3.0 data file standard (Seamer et al. 1997). Forward and side scatter are obtained from the 488 nm excitation source. Detection channels are referred to by the laser used (405 nm violet VL, 488 nm blue BL, and 640 nm red RL) and the detector number in order of possible detectors with a longer wavelength. Thus RL1, as used for detecting di-S-C3(5), implies the red laser and the 675/30 detector. Data are collected from all channels, using a dynamic range of 7 logs. Many parameters may be used to vary the precise performance of the instrument. Those we found material to provide the best reproducibility and to minimise carryover, and their selected values, are as follows: Automatic prime—60 secs (in Qsol buffer); Pre-plate shake—15 s and 1500 rpm; Sip time—2 s (actual sample uptake); Additional sip time—0.5 s (the gap between sips); Pump speed—29 rpm (1.5 μL·s^−1 sample uptake); Plate model—U-bottom well plate (for 96 well plates); Mid plate cleanup—After every well (4 washes; 0.5 s each in Qsol buffer); Inter-well shake—1500 rpm; after 6 wells, 4 sec in Qsol buffer; Flush and Clean—30 sec with Decon and Clean buffers followed by 60 sec with deionised water. The Forecyt™ software supplied with the instrument may be used to gate and display all the analyses post hoc. It, and the FlowJo software, were used in the preparation of the cytograms shown. Where used, di-S-C3(5) was present at a final concentration of 3 μM; its analysis used excitation at 640 nm and detection at 675±15 nm, the fluorescence channel being referred to as RL1. For DNA analyses, cells were fixed by injection into ice-cold ethanol (final concentration 70%), washed twice by centrifugation in 0.1 M-Tris/HCl buffer, pH 7.4, before resuspension in the same buffer containing mithramycin (50 μg mL^−1) and ethidium bromide (25 μg mL^−1), MgCl2, (25 mM) and NaCl (100 mM) (Boye et al. 1983). […] All the solutions and media used were filtered through 0.2 μm filter.
Samples were taken at various times during the day, kept at 4° C., delivered to the Manchester laboratory by taxi, plated out (LB agar containing as appropriate the stated antibiotics at 3 times normal MIC) to assess microbial numbers and antibiotic sensitivity, the remaining sample kept again at 4° C., and analysed flow cytometrically within 18 h. For flow cytometric assessment, cells were diluted into 37° C. Terrific Broth containing 3 μM diS-C3(5) plus any appropriate antibiotic, and assayed as above. For other experiments (not shown) cells were filtered (0.45 μm) and diluted as appropriate into warmed terrific broth.
Finally, we wished to determine whether this method, as developed in laboratory cultures, could be applied to candidate UTI specimens ‘as received’ in a doctor's surgery.
In general terms: In flow cytometry, cells or beads pass a laser one at a time.

For a further experiment, the system named is E. coli MG1655. The experiment in a line: Flow cytometric particle counting of proliferation with antibiotic in 20 mins (FIG. 6C). Type of experiment: cell-based. The conditions noted are these: sensitive strain E. coli MG1655, Terrific Broth. The source says:
Initial studies used a Sony SH-800 instrument, but all studies reported here used an Intellicyt® iQue screener PLUS. This instrument is based in significant measure on developments by Sklar and colleagues (e.g. (Edwards et al. 2009; Sklar et al. 2007; Tegos et al. 2014)), and uses segmented flow (Skeggs 1957) to sample from 96- or 384-well U- or V-bottom plates prior to their analysis. The iQue Plus contains three excitation sources (405 nm, 488 nm, 640 nm) and 7 fixed filter detectors (with a midpoint/range in nm of 445/45, 530/30, 572/28, 585/40, 615/24, 675/30, 780/60, giving 13 fluorescence channels) whose outputs are stored as both ‘height’ and area, using the FCS3.0 data file standard (Seamer et al. 1997). Forward and side scatter are obtained from the 488 nm excitation source. Detection channels are referred to by the laser used (405 nm violet VL, 488 nm blue BL, and 640 nm red RL) and the detector number in order of possible detectors with a longer wavelength. Thus RL1, as used for detecting di-S-C3(5), implies the red laser and the 675/30 detector. Data are collected from all channels, using a dynamic range of 7 logs. Many parameters may be used to vary the precise performance of the instrument. Those we found material to provide the best reproducibility and to minimise carryover, and their selected values, are as follows: Automatic prime—60 secs (in Qsol buffer); Pre-plate shake—15 s and 1500 rpm; Sip time—2 s (actual sample uptake); Additional sip time—0.5 s (the gap between sips); Pump speed—29 rpm (1.5 μL·s^−1 sample uptake); Plate model—U-bottom well plate (for 96 well plates); Mid plate cleanup—After every well (4 washes; 0.5 s each in Qsol buffer); Inter-well shake—1500 rpm; after 6 wells, 4 sec in Qsol buffer; Flush and Clean—30 sec with Decon and Clean buffers followed by 60 sec with deionised water. […] Where used, di-S-C3(5) was present at a final concentration of 3 μM; its analysis used excitation at 640 nm and detection at 675±15 nm, the fluorescence channel being referred to as RL1. […]

[1] abbreviates: UTI sample May 25, 2018 (first listed).
[2] abbreviates: UTI sample May 25, 2018 (second listed).

Regarding `CC1(C)S[C@@H]2[C@H](NC(=O)[C@H](N)c3ccccc3)C(=O)N2[C@H]1C(=O)O` [Ampicillin], the Antibiotic sensitivity entry with E. coli in UTI samples (UTI sample Jul. 16, 2018) is listed as “R”; in the experiment on E. coli in UTI samples (UTI sample Jul. 18, 2018) it was “R”; in the experiment with E. coli in UTI samples (UTI sample Jul. 20, 2018), “S”; with E. coli in UTI samples (UTI sample Jun. 6, 2018) it was “R”; with E. coli in UTI samples (setting [1]) it was “R”; in the experiment with E. coli in UTI samples (setting [2]), “S”. The “Effect on cell proliferation” value in the experiment on E. coli MG1655 is given as “work effectively”.

Regarding `O=C(O)c1cn(C2CC2)c2cc(N3CCNCC3)c(F)cc2c1=O` [Ciprofloxacin], the “Effect on cell proliferation” value with E. coli MG1655 is listed as “work effectively”.

Consider `O=C1CN(/N=C/c2ccc([N+](=O)[O-])o2)C(=O)N1` [Nitrofurantoin], for which the Antibiotic sensitivity entry in the experiment with E. coli in UTI samples (UTI sample Jul. 16, 2018) is on record as “S”; in the experiment on E. coli in UTI samples (UTI sample Jul. 18, 2018), “R”; in the experiment with E. coli in UTI samples (UTI sample Jul. 20, 2018) it was “S”; in the experiment on E. coli in UTI samples (UTI sample Jun. 6, 2018), “S”; in the experiment with E. coli in UTI samples (setting [1]), “S”; in the experiment with E. coli in UTI samples (setting [2]), “S”.

Regarding `COc1cc(Cc2cnc(N)nc2N)cc(OC)c1OC` [Trimethoprim], the Antibiotic sensitivity entry in the experiment with E. coli in UTI samples (UTI sample Jul. 16, 2018) is “S”; in the experiment on E. coli in UTI samples (UTI sample Jul. 18, 2018) it was “S”; with E. coli in UTI samples (UTI sample Jul. 20, 2018) it was “R”; with E. coli in UTI samples (UTI sample Jun. 6, 2018), “S”; in the experiment with E. coli in UTI samples (setting [1]) it was “R”; with E. coli in UTI samples (setting [2]), “S”. For the same compound, the “Effect on cell proliferation” value in the experiment on E. coli MG1655 is given as “work effectively”.
